Test results taken from patent US4478746A, “Glycosylated insulin derivatives” (priority 1984, dated 1984).

Experiments:
blood sugar level = experiment: Blood sugar depression (BSD) test; assay type: in vivo; conditions: rats fasted twenty hours, 1 mg/kg intraperitoneal, 20 minutes after injection; control (baseline) 64.62 ± 0.61
Procedure: The bioactivity of the glycosated insulins described herein was determined by a blood sugar depression test and compared to commercial insulin preparations and controls. In this test, replicates of standard laboratory rats were fasted for twenty hours. After measuring baseline blood sugar levels, a 1 mg/kg dose of either free or glycosylated insulin was injected via an intraperitoneal route. The blood sugar level in each rat was measured colormetrically 20 minutes after the injection.

[1] = Bulk aggregation study (stirred aqueous solutions, aggregation visually observed); assay type: physicochemical; conditions: aqueous solution 0.1 mg/ml insulin, stirred at 1555 rpm until aggregation visually observed or up to two weeks
Procedure: (§1) Bulk aggregation studies with free insulin compared with glycosylated insulins were carried out by two methods. In a bulk aggregation study, various aqueous insulin and glycosylated insulin solutions containing 0.1 mg/ml of insulin were stirred at 1555 rpm until aggregation was visually observed or up to two weeks. In a second test, solutions containing the same insulin concentration were deposited on polyurethane (Biomer) and microscopically observed for aggregation.

[2] = Aggregation test on polyurethane (Biomer), microscopically observed; assay type: physicochemical; conditions: 0.1 mg/ml insulin solution deposited on polyurethane (Biomer)
Procedure: as §1

Row | Substance | Blood Sugar Concentration after 20 min. IP. injection (± S.E.M.) (blood sugar level) [mg/dL] | Time required for aggregation, Bulk [1] | Time required for aggregation, Polyurethane [2]
1 | Glucosamidosuccinyl insulin | 37.80 ± 1.13 | – | –
2 | SIGMA INS (21F-0375): commercial insulin preparation (Sigma) used as comparison | 32.66 ± 1.10 | – | –
3 | glucosamidoglutaryl insulin | 45.92 ± 3.30 | – | –
4 | insulin [Free Insulin, reference compound] | – | 2 to 3 days | 1 to 2 days
5 | p-(α-D-glucopyranosyloxy)-phenyl-N-succinamyl insulin | 40.87 ± 1.32 | 2 weeks | 2 weeks
6 | p-(α-D-glucopyranosyloxy)-phenyl-thiocarbamoyl Insulin | 44.67 ± 2.21 | 2 weeks | 8 days
7 | p-(α-D-mannopyranosyloxy)-phenyl-N-glutaramyl insulin | 40.60 ± 0.80 | – | –
8 | p-(α-D-mannopyranosyloxy)-phenyl-N-succinamyl insulin | 44.80 ± 2.37 | 2 weeks | 2 weeks
9 | p-α-D-glucopyranosyloxy)-phenyl-N-glutaramyl insulin | 40.40 ± 2.53 | – | –
